Consider four molecules from ChEMBL document CHEMBL1152194, “Substituent control of DNA binding modes in a series of chalcogenoxanthylium photosensitizers as determined by isothermal titration calorimetry and topoisomerase I DNA unwinding assay” (Bioorg Med Chem, 2008).

Data set [1] addresses T1, DNA topoisomerase 1 (Homo sapiens) (UniProt P11387).
T1 sequence (whole entry): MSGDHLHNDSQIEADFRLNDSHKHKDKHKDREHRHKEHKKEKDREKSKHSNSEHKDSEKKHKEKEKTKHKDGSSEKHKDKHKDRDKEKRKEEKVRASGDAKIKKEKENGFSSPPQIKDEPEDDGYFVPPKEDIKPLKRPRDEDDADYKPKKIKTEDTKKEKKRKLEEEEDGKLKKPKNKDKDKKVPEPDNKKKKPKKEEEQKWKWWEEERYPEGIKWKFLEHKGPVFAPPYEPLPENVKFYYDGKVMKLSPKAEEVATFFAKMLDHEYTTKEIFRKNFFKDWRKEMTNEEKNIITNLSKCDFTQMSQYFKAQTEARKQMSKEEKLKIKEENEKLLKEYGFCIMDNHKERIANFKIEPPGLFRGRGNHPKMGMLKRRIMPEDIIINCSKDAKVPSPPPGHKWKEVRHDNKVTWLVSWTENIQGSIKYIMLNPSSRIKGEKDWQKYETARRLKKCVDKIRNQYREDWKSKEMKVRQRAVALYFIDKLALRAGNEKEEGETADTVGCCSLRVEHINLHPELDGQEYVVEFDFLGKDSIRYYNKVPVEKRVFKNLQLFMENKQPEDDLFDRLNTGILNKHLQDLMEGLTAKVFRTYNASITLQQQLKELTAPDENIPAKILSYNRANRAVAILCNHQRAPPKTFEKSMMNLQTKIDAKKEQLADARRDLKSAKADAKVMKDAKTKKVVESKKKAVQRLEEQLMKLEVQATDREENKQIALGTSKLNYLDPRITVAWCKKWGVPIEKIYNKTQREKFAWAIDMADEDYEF
The data set can be described thus: Inhibition of human DNA topoisomerase 1-induced unwinding activity using Escherichia coli pUC19 DNA assessed as bound compound per nucleotide pair at 24 uM.

For another data set, the system named is DNA. The data set can be described thus: Binding affinity to ultrapure calf thymus DNA in MESOO buffer at pH 6.25 at 30 degC by isothermal titration calorimetry assay. Format: nucleic-acid assay, Bos taurus.
Data set [2] is described as follows: Selectivity for Kb of [poly(dAdT)]2 DNA to Kb of [poly(dCdG)]2 DNA.
The nature of a further data set: physchem. Conditions: octanol/water.

Take `CCN(CC)C(=O)c1sccc1-c1c2ccc(=[N+](C)C)cc-2sc2cc(N(C)C)ccc12`: the Activity in data set [1] was found to be 0.9. In turn, `CN(C)c1ccc2c(-c3cccs3)c3ccc(=[N+](C)C)cc-3[te]c2c1.F[P-](F)(F)(F)(F)F` showed a Kd in the data set on DNA of 2.1 ×10⁶ /M. Usually logP stands for a log measure of how a compound divides between an organic and an aqueous phase. A high value points to a more lipophilic compound. Turning to `CN(C)c1ccc2c(-c3ccccc3)c3ccc(=[N+](C)C)cc-3[se]c2c1`, the Ratio pKb in data set [2] amounted to 3. Besides, the logP in the data set “physchem” worked out at 0.09. In the data set “physchem”, `CN(C)c1ccc2c(-c3cccs3)c3ccc(=[N+](C)C)cc-3[se]c2c1` gave a logP of -0.31.
